Where two headings read alike, the source gives them in different places.
Columns and labels:
Rape [1] = details: 150 g a.i./ha; post-emergence spray treatment
Chinese sorghum = experiment: Culture dish method (general screening); format: in vivo; details: 100 mg/L, 7 days
Text: (§2) Culture dish method (general screening): The test targets were radish, cucumber, rape, wheat, sorghum and barnyard grass; the seeds of wheat, sorghum and radish were germinated in advance, and the uniform emerge-germinating seeds were used in the test.

Mustard = details: 150 g a.i./ha, 30 days, Table 9
Cucumber = experiment: Culture dish method (general screening); format: in vivo; details: 100 mg/L, 7 days
Text: as §2

Wheat = experiment: Culture dish method (general screening); format: in vivo; details: 100 mg/L, 7 days
Text: as §2

Soybean = details: 150 g a.i./ha; post-emergence spray treatment
Barley = details: post-emergence spray treatment
Rape [2] = experiment: Culture dish method (general screening); format: in vivo; details: 100 mg/L, 7 days
Text: as §2

Corn = details: post-emergence spray treatment
Barnyardgrass [3] = experiment: Culture dish method (general screening); format: in vivo, barnyard grass; details: 100 mg/L, 7 days
Text: as §2

Barnyardgrass [4] = experiment: Potted plants live body test; format: in vivo, barnyard grass
[5] = system: grass weeds such as crabgrass, barnyard grass, dog point
weeds = details: pre-emergence soil treatment; dose lowered below 150 g a.i./ha
[6] = system: broadleaf weeds such as mustard, small quinoa, Abutilon, Amaranthus retroflexus and Eclipta prostrate; details: 150 g a.i./ha
Small quinoa = details: 150 g a.i./ha, 30 days, Table 9
Cotton = details: 150 g a.i./ha; post-emergence spray treatment
Rice = details: 150 g a.i./ha; post-emergence spray treatment
Radish = experiment: Culture dish method (general screening); format: in vivo; details: 100 mg/L, 7 days
Text: as §2

amaranthus retroflexus = experiment: Potted plants live body test; format: in vivo
Method in brief: (§1)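 Post-sowing spray on 3-leaf-stage weeds grown in 7.5 cm pots of garden soil and nursery matrix (1:2, v/v). Spray solutions came from a 1.0˜5.0% compound stock in DMF containing 1 wt % Tween-80, diluted with water.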

Abutilon = experiment: Potted plants live body test; format: in vivo
Method in brief: as §1

Dog point = experiment: Potted plants live body test; format: in vivo
Method in brief: as §1

Crabgrass = experiment: Potted plants live body test; format: in vivo
Method in brief: as §1

Eclipta prostrata = experiment: Potted plants live body test; format: in vivo; details: for efficiency, Eclipta prostrata: 30 days, Table 9
Method in brief: as §1

[7] = Pre-emergence soil treatment, 37.5 g a.i./ha
[8] = Pre-emergence soil treatment, 75 g a.i./ha
[9] = Pre-emergence soil treatment, 150 g a.i./ha, Table 10
[10] = postemergence spraying, 37.5 g a.i./ha
[11] = postemergence spraying, 75 g a.i./ha
[12] = postemergence spraying, 150 g a.i./ha, Table 10
[13] = Postemergence spraying, 150 g a.i./ha, 30 days, Table 9
[14] = Pre-emergence soil treatment, 150 g a.i./ha, 30 days, Table 9

SMILES: CON=C(C(=O)OC)c1ccccc1COc1cccc(-c2ncc(C(F)(F)F)cc2Cl)c1 [Compound 101]
- Crop inhibition rate, Rape (Rape [1]): 50%
- inhibition rate, Chinese sorghum Root (Chinese sorghum; root): 100%
- inhibition rate, Chinese sorghum Stem (Chinese sorghum; stem): 100%
- efficiency, Mustard (Mustard; Postemergence spraying): 100%
- efficiency, Mustard (Mustard; Pre-emergence soil treatment): 100%
- inhibition rate, Cucumber Root (Cucumber; root): 95%
- inhibition rate, Cucumber Stem (Cucumber; stem): 100%
- inhibition rate, Wheat Root (Wheat; root): 50%
- inhibition rate, Wheat Stem (Wheat; stem): 20%
- Crop inhibition rate, Soybean (Soybean): 40%
- Crop inhibition rate, Barley (Barley; 150 g a.i./ha): 0%
- crop safety for barleys (Barley): safer
- inhibition rate, Rape Root (Rape [2]; root): 100%
- inhibition rate, Rape Stem (Rape [2]; stem): 100%
- Crop inhibition rate, Corn (Corn; 150 g a.i./ha): 0%
- crop safety for corns (Corn): safer
- inhibition rate, Barnyardgrass Root (Barnyardgrass [3]; root): 100%
- inhibition rate, Barnyardgrass Stem (Barnyardgrass [3]; stem): 95%
- efficiency, Barnyardgrass (Barnyardgrass [4]; [7]): 0%
- efficiency, Barnyardgrass (Barnyardgrass [4]; [8]): 0%
- efficiency, Barnyardgrass (Barnyardgrass [4]; [9]): 0%
- efficiency, Barnyardgrass (Barnyardgrass [4]; [10]): 0%
- efficiency, Barnyardgrass (Barnyardgrass [4]; [11]): 0%
- efficiency, Barnyardgrass (Barnyardgrass [4]; [12]): 0%
- activity for grass targets such as crabgrass and dog point ([5]; 150 g a.i./ha, 30 days after administration, Table 9 summary): poor activity
- activity on grass weeds such as crabgrass, dog point ([5]; postemergence spraying, 150 g a.i./ha, 30 days): almost have no activity
- activity on crabgrass, barnyard grass, dog point ([5]; postemergence treatment, 150, 75, 37.5 g a.i./ha): not good activity or no activity
- activity on grass weeds ([5]; pre-emergence soil treatment, 150 g a.i./ha): not good activity
- activity on 6 kinds of weed targets (weeds): significantly decreased activity or no activity
- herbicidal activity on broadleaf weeds targets ([6]; 30 days after administration, Table 9 summary): herbicidal activity
- activity on the growth of broadleaf weeds ([6]; postemergence spraying, 30 days, vs clear water control): inhibitory activity
- efficiency, Small quinoa (Small quinoa; Postemergence spraying): 100%
- efficiency, Small quinoa (Small quinoa; Pre-emergence soil treatment): 100%
- Crop inhibition rate, Cotton (Cotton): 50%
- Crop inhibition rate, Rice (Rice): 30%
- inhibition rate, Radish Root (Radish; root): 100%
- inhibition rate, Radish Stem (Radish; stem): 100%
- efficiency, amaranthus retroflexus (amaranthus retroflexus; [13]): 100%
- efficiency, amaranthus retroflexus (amaranthus retroflexus; [7]): 0%
- efficiency, amaranthus retroflexus (amaranthus retroflexus; [8]): 15%
- efficiency, amaranthus retroflexus (amaranthus retroflexus; [14]): 100%
- efficiency, amaranthus retroflexus (amaranthus retroflexus; [9]): 100%
- efficiency, amaranthus retroflexus (amaranthus retroflexus; [10]): 100%
- efficiency, amaranthus retroflexus (amaranthus retroflexus; [11]): 100%
- efficiency, amaranthus retroflexus (amaranthus retroflexus; [12]): 100%
- efficiency, Abutilon (Abutilon; [13]): 100%
- efficiency, Abutilon (Abutilon; [7]): 0%
- efficiency, Abutilon (Abutilon; [8]): 0%
- efficiency, Abutilon (Abutilon; [14]): 100%
- efficiency, Abutilon (Abutilon; [9]): 100%
- efficiency, Abutilon (Abutilon; [10]): 30%
- efficiency, Abutilon (Abutilon; [11]): 60%
- efficiency, Abutilon (Abutilon; [12]): 100%
- efficiency, Dog point (Dog point; [13]): 0%
- efficiency, Dog point (Dog point; [7]): 0%
- efficiency, Dog point (Dog point; [8]): 0%
- efficiency, Dog point (Dog point; [14]): 50%
- efficiency, Dog point (Dog point; [9]): 50%
- efficiency, Dog point (Dog point; [10]): 0%
- efficiency, Dog point (Dog point; [11]): 0%
- efficiency, Dog point (Dog point; [12]): 0%
- efficiency, Crabgrass (Crabgrass; [13]): 0%
- efficiency, Crabgrass (Crabgrass; [7]): 0%
- efficiency, Crabgrass (Crabgrass; [8]): 0%
- efficiency, Crabgrass (Crabgrass; [14]): 80%
- efficiency, Crabgrass (Crabgrass; [9]): 80%
- efficiency, Crabgrass (Crabgrass; [10]): 0%
- efficiency, Crabgrass (Crabgrass; [11]): 0%
- efficiency, Crabgrass (Crabgrass; [12]): 0%
- efficiency, Eclipta prostrata (Eclipta prostrata; Postemergence spraying, 150 g a.i./ha): 100%
- efficiency, Eclipta prostrate (Eclipta prostrata; [7]): 0%
- efficiency, Eclipta prostrate (Eclipta prostrata; [8]): 0%
- efficiency, Eclipta prostrata (Eclipta prostrata; Pre-emergence soil treatment, 150 g a.i./ha): 85%
- efficiency, Eclipta prostrate (Eclipta prostrata; [9]): 85%
- efficiency, Eclipta prostrate (Eclipta prostrata; [10]): 97.5%
- efficiency, Eclipta prostrate (Eclipta prostrata; [11]): 100%
- efficiency, Eclipta prostrate (Eclipta prostrata; [12]): 100%

Reference: US9884823B2, “Oxime ether acetate compound, preparation method therefor and weeding application thereof” (ZHEJIANG UNIVERSITY OF TECHNOLOGY, priority 2014, dated 2018)
